Where “and” joins values, the source holds several entries; their conditions need not be identical. Equal entries are not always repeated.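 Results reflect a 48-hour exposure of cells in 96-well plates to compound at five concentrations. GI50 marks 50% less growth. The concentration for full growth arrest is given as TGI.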
What was measured:
Experiment in all cases: NCI anticancer screen, dose series, 48 h
[1] = test system: A549 NSCLC
[2] = test system: U251 CNS
[3] = test system: OVCAR-8 ovarian
[4] = test system: BT-549 breast
[5] = test system: HCC-2998 colon
[6] = test system: KM12 colon
[7] = test system: RPMI-8226 leukemia
[8] = test system: OVCAR-5 ovarian
[9] = test system: IGROV1 ovarian
[10] = test system: HOP-92 NSCLC

SMILES	GI50 [1]	TGI [1]	GI50 [2]	TGI [2]	GI50 [3]	TGI [3]	GI50 [4]	TGI [4]	GI50 [5]	TGI [5]	GI50 [6]	TGI [6]	GI50 [7]	TGI [7]	GI50 [8]	TGI [8]	GI50 [9] [µM]	TGI [9]	GI50 [10] [µM]	TGI [10]
O=C1c2cccc3cccc(c23)C(=O)N1CCCCCN1CCN(CCCCCOc2ccc(-c3nc4ccc(N5CCOCC5)cc4[nH]3)cc2)CC1	2.22 µM	5.26 µM	5.47 µM	10.2 µM	1.32 µM	4.95 µM	4.88 µM	23.2 µM	36.5 µM	> 91 µM	2.15 µM	4.29 µM	0.787 µM	3.72 µM	> 100 µM	> 100 µM	1.76	8.08 µM	25.1	> 58.2 µM
COc1ccc(-c2nsc3c2NC(=O)CC3c2cccc(OC)c2)cc1 (centres undefined)	0.714 µM	> 100 µM	1.83 µM	> 100 µM	3.22 µM	> 100 µM	2.87 µM	> 100 µM	2.13 µM	> 100 µM	0.505 µM	> 100 µM	1.61 µM	> 100 µM	3.79 µM	> 100 µM	2.18	> 100 µM	2.31	43 µM
CC1(C)N=C(N)N=C(N)N1c1ccc(CCCCc2ccc(Cl)c(S(=O)(=O)F)c2)c(Cl)c1	0.319 µM	3.98 µM	0.437 µM	19.6 µM	0.557 µM	24.5 µM	1.55 µM	12.5 µM	0.922 µM	15.1 µM	1.36 µM	7.81 µM	0.527 µM	3.32 µM	13.9 µM	27.1 µM	0.117	20.7 µM	1.08	15.2 µM
Cn1c(=O)c(Oc2ccc(F)cc2)cc2cnc(NC3CCOCC3)nc21	> 25 µM	> 25 µM	> 25 µM	> 25 µM	> 25 µM	> 25 µM	> 25 µM	> 25 µM	> 25 µM	> 25 µM	> 25 µM	> 25 µM	> 25 µM	> 25 µM	> 25 µM	> 25 µM	> 25	> 25 µM	4.72	> 25 µM
CC1(Br)Cc2ccccc2C1=O (centres undefined)		32.4 µM		18.7 µM	4.11 µM	15.7 µM		5.03 µM		> 100 µM		25.8 µM	3.02 µM	14.7 µM		14.2 µM		15 µM		16.5 µM
O=C(NNc1ccccc1)C(=O)NNc1ccccc1	3.53 µM	> 100 µM	> 100 µM	> 100 µM	> 100 µM	> 100 µM	42.4 µM	> 100 µM	2.96 µM	> 100 µM	0.535 µM	> 100 µM	> 100 µM	> 100 µM	> 100 µM	> 100 µM	> 100	> 100 µM	> 100	> 100 µM
CC1CCN(C(=O)OCc2nc3nc(Cl)nc(N4CCOCC4)c3[nH]2)CC1	1.94 µM	4.81 µM	1.66 µM	3.43 µM	1.9 µM	9.02 µM	1.25 µM	3.07 µM	1.69 µM	3.29 µM	1.58 µM	3.33 µM			1.31 µM	2.73 µM	0.529	1.83 µM	0.0497	1.06 µM
CSc1nc(NC2OC(COC(C)=O)C(OC(C)=O)C(OC(C)=O)C2OC(C)=O)c(N=CC=Nc2c(NC3OC(COC(C)=O)C(OC(C)=O)C(OC(C)=O)C3OC(C)=O)nc(SC)n(C)c2=O)c(=O)n1C (centres undefined)	> 50 µM	> 100 µM	20.6 µM	50 µM and > 100 µM	> 50 µM	> 100 µM	37.5 µM	50 µM and > 100 µM	> 50 µM	> 100 µM	> 50 µM	> 100 µM		> 100 µM	> 50 µM	> 100 µM	> 50	> 100 µM	14.8	50 µM and 64.5 µM
O=C1CCC/C=C\C[C@H]2C=CC(=O)/C2=C/C[C@H](C/C=C\CC(F)(F)F)O1	0.528 µM	2.38 µM	0.419 µM	1.75 µM	0.423 µM	1.34 µM	0.292 µM	0.659 µM	0.384 µM	0.733 µM	0.299 µM	0.635 µM	0.275 µM	0.858 µM	0.67 µM	3.11 µM	0.596	1.98 µM	1.85	5.01 µM
C=CCc1ccc(O)c(-c2ccc(O)c(CC=C)c2)c1	30.7 µM	> 100 µM	14.3 µM	31.8 µM	32.8 µM	> 60.9 µM	13.2 µM	27.5 µM	18.4 µM	36.5 µM	13.6 µM	34 µM	14.6 µM	> 55.9 µM	16.8 µM	38.9 µM	5.67	49.5 µM	13.9	31.1 µM
CN(C)C/C=C/C(=O)Nc1cc2c(Nc3ccc(F)c(Cl)c3)ncnc2cc1O[C@H]1CCOC1	1.48 µM and 1.6 µM	7.55 µM and > 10 µM	0.58 µM and 1.35 µM	2.96 µM and > 10 µM	1.36 µM and 1.88 µM	5.37 µM and > 6.85 µM	2.28 µM and 2.18 µM	9.6 µM and > 10 µM	1.14 µM and 1.58 µM	3.14 µM and > 9.22 µM	1.25 µM and 1.99 µM	11.3 µM and > 10 µM	1.76 µM and 2.14 µM	5.39 µM and > 6.56 µM	0.843 µM and 0.345 µM	13.3 µM and > 10 µM		12.5 µM and 2.35 µM	0.227	4.44 µM
O=[N+]([O-])c1cccc2ccc(N/N=C/c3ccccc3O)nc12	> 100 µM	> 100 µM	> 59.7 µM	> 100 µM	> 100 µM	> 100 µM	> 100 µM	> 100 µM	> 100 µM	> 100 µM	> 100 µM	> 100 µM	0.027 µM	3.12 µM	> 100 µM	> 100 µM			> 100	> 100 µM
COC(=O)c1ccc(-c2c(C#N)[n+](=O)c3cc(Cl)c(Cl)cc3n2[O-])cc1	47.4 µM	> 100 µM	16.7 µM	44.9 µM	24.3 µM	55.6 µM	16.8 µM	34 µM	16.9 µM	37.7 µM	20.9 µM	51.3 µM	29.8 µM	83.4 µM	19.2 µM	39.4 µM	3.39	> 100 µM	11.1	34.9 µM
CC(C)OC(=O)[C@H](C)NP(=O)(OC[C@H]1O[C@@H](n2ccc(=O)[nH]c2=O)[C@](C)(F)[C@@H]1O)Oc1ccccc1 (some centres undefined)	> 100 µM	> 100 µM	> 100 µM	> 100 µM	> 100 µM	> 100 µM	> 100 µM	> 100 µM	> 100 µM	> 100 µM	> 100 µM	> 100 µM			> 100 µM	> 100 µM	> 100	> 100 µM	> 100	> 100 µM
COc1ccc(/C(=C\C=C(C#N)C#N)Sc2nc3ccccc3s2)cc1	15.5 µM	> 50 µM	3.39 µM	11 µM	13.7 µM	33.9 µM	6.51 µM	17.5 µM	9.02 µM	16.9 µM	10.6 µM	31.3 µM			7.65 µM	15.1 µM	10	46.4 µM	0.717	4.14 µM
COC(=O)c1ccc2c(c1)/C(=C\c1cc(Br)c(O)c(Br)c1)C(=O)N2	8.19 µM	> 25 µM	6.59 µM	> 25 µM	13 µM	> 25 µM	10.6 µM	> 25 µM	8.23 µM	> 25 µM	6.79 µM	> 25 µM	5.21 µM	> 25 µM	13.5 µM	> 25 µM	7.29	> 25 µM	2.45	17.4 µM
C#Cc1nc(Nc2cc(C)[nH]n2)c2ccccc2n1	0.394 µM	2.24 µM	0.256 µM	0.885 µM	0.325 µM	> 100 µM	0.233 µM	0.475 µM	0.216 µM	0.466 µM	0.232 µM	0.503 µM	0.0835 µM	0.46 µM	0.332 µM	0.995 µM	0.22	0.563 µM	0.293	1.25 µM
C[C@H](Nc1cc(Cl)nc2c1cnn2[C@@H]1O[C@H](COP(=O)(O)CP(=O)(O)O)[C@@H](O)[C@H]1O)c1ccccc1F	> 100 µM	> 100 µM	> 100 µM	> 100 µM	> 100 µM	> 100 µM	> 100 µM	> 100 µM	> 100 µM	> 100 µM	> 100 µM	> 100 µM			> 100 µM	> 100 µM	> 100	> 100 µM	> 100	> 100 µM
C[C@H]1CN[C@@H]2[C@@H](C)[C@H]3[C@@H](C[C@H]4[C@@H]5CC[C@H]6C[C@@H](N)CC[C@]6(C)[C@H]5CC[C@]34C)O[C@@]2(O)C1		17.3 µM		4.9 µM		4.78 µM		7.24 µM		6.23 µM		11.1 µM				19.6 µM		9.66 µM		11.4 µM

Source: PubChem BioAssay (NCI)
